pKi: −log10 of the molar value. Read-outs that look alike come from different tables or passages of the source. Square brackets hold non-standard residues; d marks the D form. Peptide text beside a SMILES is read from it. pGlu = O=C1CC[C@@H](C(=O)O)N1
Assays:
[1] = in vivo; cited from earlier work
[2] = tested on: anesthetized normotensive rats (WKY) blood pressure; assay: Potentiation of the bradykinin hypotensive effect on anesthetized rat blood pressure; assay type: in vivo; settings: for Bk potentiation(%): hypotension increase of a single bradykinin dose after 200 nmol of potentiator i.v., anesthetized rats; for Duration time: time to reduce the potentiating effect by 50%, 200 nmol/rat i.v., unit not given, minutes
Method: The potentiating activity of the bradykinin hypotensive effect was tested in anesthetized rats. Normotensive male rats (WKY) were anesthetized using pentobarbital sodium (Hypnol® Cristália, 50 mg/kg, intraperitoneal) and placed on a controlled-temperature board for maintaining the body temperature between 36.5° C. and 37° C. A polygraph coupled to a physiological transducer was used. The blood pressure ranging values were obtained by integrating the areas limited by the baseline pressure and comparing them to the values obtained from control assays. In in vivo assays, the potentiating activity of Evasins on the hypotensive effect of bradykinin on anesthetized rat blood pressure was observed. Two parameters were determined for comparison of the potentiating effects of bradykinin on the anesthetized rat blood pressure (n=5):
1) Intensity of the potentiating effect of the hypotensive activity of bradykinin on the anesthetized rats blood pressure: This value was defined as the hypotension percentage (%) increase caused by a single dose of bradykinin obtained after the infusion of 200 nmol of potentiator. 2) Potentiating effect length: Time required to reduce the potentiating effect on a single dose of bradykinin by 50%.

[3] = tested on: SHR and TGR(mREN2)L27 hypertensive rats blood pressure; assay: Infusion of Evasin 5a in awake hypertensive rats of different strain; assay type: in vivo, rat; settings: for decrease of the MAP: infusion 900 μg/100 g corporal weight/hour
Text: (§1) One day before the assay, the animals were subjected to a surgery for cannulation of the femoral artery and vein. The rats were anesthetized with ether and placed in dorsal decubitus on a surgical board. A small skin incision was made, thus separating the musculature for locating the femoral vasculonervous bunch. […] After insertion, the cannulas were tied to the bunch using a surgical line. Next, the cannulas were directed subcutaneously with the aid of a trocater to the scapular waist where they were exteriorized and secured using a suture line.
(§2) The blood pressure and the heart rate were recorded one day after the femoral artery and vein cannulation. The assay was conducted with non-anesthetized animals with free movement. The animals pulsed arterial pressure (PAP), the mean arterial pressure (MAP) and heart rate (HR) were monitored by a computer, using a data acquisition system (BIOPAC). The data were collected during all the experiments.
Before the drug administration, the rats PBP, MBP and HR were monitored during 60 minutes. During and after the infusion of the Evasin 5a, 900 μg/100 g corporal weight/hour in NaCl solution 0.9% (n=6), the cardiovascular parameters were registered. The administration of the evasin-5a in both strains produced the same decreased of the MAP 28±2.7 mmHg and 34±0.9 mmHg in the SHR and TGR (mREN2) L27 respectively. However, it was observed that the relevant difference in time duration effect after the infusion interruption was over 6 hours in the SHR and only 1 hour in the TGRs. These differences indicate important variations of the biochemical mechanisms of the Evasins 5a action with different degree for the renin angiotensin system activation.

[4] = biological target: neutral endopeptidase (recombinant NEP) (Homo sapiens, UniProt P08473); assay: Fluorometric assay of recombinant NEP inhibition; assay type: biochemical
Sequence of neutral endopeptidase (recombinant NEP) (P08473 whole entry, species assumed): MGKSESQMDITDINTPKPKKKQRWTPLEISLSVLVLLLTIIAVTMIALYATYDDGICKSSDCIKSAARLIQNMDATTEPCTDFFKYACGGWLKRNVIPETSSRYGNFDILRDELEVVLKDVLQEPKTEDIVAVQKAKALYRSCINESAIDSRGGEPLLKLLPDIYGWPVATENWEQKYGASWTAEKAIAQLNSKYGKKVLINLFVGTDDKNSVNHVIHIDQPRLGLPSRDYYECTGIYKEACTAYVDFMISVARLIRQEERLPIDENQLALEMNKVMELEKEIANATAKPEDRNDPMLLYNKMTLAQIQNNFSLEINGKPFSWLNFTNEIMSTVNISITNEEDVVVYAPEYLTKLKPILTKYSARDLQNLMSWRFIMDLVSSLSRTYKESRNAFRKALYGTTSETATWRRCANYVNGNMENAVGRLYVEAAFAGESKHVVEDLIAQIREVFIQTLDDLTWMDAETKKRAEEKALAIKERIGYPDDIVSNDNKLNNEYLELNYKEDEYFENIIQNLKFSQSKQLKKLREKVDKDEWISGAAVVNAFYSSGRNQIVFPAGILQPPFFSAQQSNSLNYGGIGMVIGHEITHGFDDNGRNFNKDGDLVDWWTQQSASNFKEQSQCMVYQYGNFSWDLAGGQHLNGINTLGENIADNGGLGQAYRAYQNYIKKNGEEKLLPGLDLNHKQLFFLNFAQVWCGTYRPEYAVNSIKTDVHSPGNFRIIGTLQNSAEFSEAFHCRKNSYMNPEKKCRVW
Method: The fluorometric assays for the recombinant NEP inhibition were conducted using the substrate Abz-RL-EDDnp in a 50 mM Tris-HCl buffer, pH 7.5, at 37° C. […] The Evasins were pre-incubated with the enzyme before the substrate addition.
The inhibition constants (Ki) values were determined by means of the ratio of the apparent inhibition constant (Ki(app)) and the substrate Km (Salvesen and Nagase, 1990). In: Proteolytic enzymes a practical aproach, Beynon and Bond Eds Oxford University Press, England, 87-88).

[5] = tested on: non anesthetized hypertensive rat blood pressure; assay: Blood pressure of non anesthetized hypertensive rat, i.v. bolus of Evasin; assay type: in vivo; settings: 70 nmol/100 g of body weight, non-anesthetized hypertensive rats
Text: as §1, with “suture line. The arterial cannula was used for recording the cardiovascular parameters and the venous cannula for administering the drugs.” for “suture line.”
as §2, with “The rats” for “The animals”
Before the drug administration, the rats PBP, MBP and HR were monitored. After the bolus injection of Evasin in a total volume of 0.2 mL (NaCl 0.9% solution), the resulting hypotensive effect and the effect length were monitored. In this assay, standard doses of each peptide (70 nmol/100 g of body weight) were tested (n=4). […] Evasin-5a and the Evasin-7a produced a maximum MBP reduction of −19.17±4.36 mmHg and 13.00±2.78 mmHg respectively.

[6] = biological target: C-terminal catalytic site of the Angiotensin I converting enzyme (recombinant ACE) (Homo sapiens, UniProt P12821); assay: Inhibition of the C-terminal catalytic site of recombinant ACE (fluorogenic substrate); assay type: biochemical
Sequence of C-terminal catalytic site of the Angiotensin I converting enzyme (recombinant ACE) (P12821 643-1222 limits assumed, species assumed): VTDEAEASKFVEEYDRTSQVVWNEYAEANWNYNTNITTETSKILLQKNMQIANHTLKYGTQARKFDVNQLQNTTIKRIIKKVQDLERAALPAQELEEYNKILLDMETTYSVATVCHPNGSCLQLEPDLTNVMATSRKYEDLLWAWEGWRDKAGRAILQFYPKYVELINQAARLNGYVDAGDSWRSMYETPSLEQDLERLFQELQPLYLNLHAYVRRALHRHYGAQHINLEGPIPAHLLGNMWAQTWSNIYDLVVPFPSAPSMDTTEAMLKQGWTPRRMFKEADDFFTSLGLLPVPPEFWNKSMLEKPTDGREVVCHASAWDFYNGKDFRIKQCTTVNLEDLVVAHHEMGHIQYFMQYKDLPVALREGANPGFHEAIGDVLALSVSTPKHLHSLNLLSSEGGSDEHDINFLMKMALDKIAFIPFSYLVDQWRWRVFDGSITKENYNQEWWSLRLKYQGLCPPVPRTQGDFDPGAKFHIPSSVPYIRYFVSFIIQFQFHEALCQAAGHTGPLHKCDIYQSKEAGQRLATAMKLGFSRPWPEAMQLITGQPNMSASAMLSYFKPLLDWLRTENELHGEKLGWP
Method: (§3) The fractions from purification were submitted to mass spectrometry analysis to conforming the Evasins molar mass after purification. • The enzyme assays for the recombinant ACE inhibition were conducted using the substrate Mca-Ala-Ser-Asp-Lys-DpaOH, at 25° C., in a 50 mM Hepes buffer (pH 6.8), 200 mM NaCl and […] ZnCl2.

[7] = tested on: awake hypertensive rat blood pressure; assay: Blood pressure of awake hypertensive rat, free versus cyclodextrin-encapsulated Evasin; assay type: in vivo; settings: bolus injection, 0.071 nmol/100 g of body weight, awake hypertensive rats
Text: as §1, with “This example describes the inclusion compound administration effect between the Evasin-5a and hydroxiprolil-[…]-cyclodextrina BPβCD) on the blood pressure of the hypertensive rats. One” for “One”
as §2
Before the drug administration, the rats PBP, MBP and HR were monitored during 60 minutes. After the bolus injection of Evasin in a total volume of 0.2 mL (NaCl 0.9% solution), the resulting hypotensive effect and the effect length were monitored. […]

[8] = biological target: N-terminal catalytic site of the Angiotensin I converting enzyme (recombinant ACE) (Homo sapiens, UniProt P12821); assay: Inhibition of the N-terminal catalytic site of recombinant ACE (fluorogenic substrate); assay type: biochemical
Sequence of N-terminal catalytic site of the Angiotensin I converting enzyme (recombinant ACE) (P12821 40-624 limits assumed, species assumed): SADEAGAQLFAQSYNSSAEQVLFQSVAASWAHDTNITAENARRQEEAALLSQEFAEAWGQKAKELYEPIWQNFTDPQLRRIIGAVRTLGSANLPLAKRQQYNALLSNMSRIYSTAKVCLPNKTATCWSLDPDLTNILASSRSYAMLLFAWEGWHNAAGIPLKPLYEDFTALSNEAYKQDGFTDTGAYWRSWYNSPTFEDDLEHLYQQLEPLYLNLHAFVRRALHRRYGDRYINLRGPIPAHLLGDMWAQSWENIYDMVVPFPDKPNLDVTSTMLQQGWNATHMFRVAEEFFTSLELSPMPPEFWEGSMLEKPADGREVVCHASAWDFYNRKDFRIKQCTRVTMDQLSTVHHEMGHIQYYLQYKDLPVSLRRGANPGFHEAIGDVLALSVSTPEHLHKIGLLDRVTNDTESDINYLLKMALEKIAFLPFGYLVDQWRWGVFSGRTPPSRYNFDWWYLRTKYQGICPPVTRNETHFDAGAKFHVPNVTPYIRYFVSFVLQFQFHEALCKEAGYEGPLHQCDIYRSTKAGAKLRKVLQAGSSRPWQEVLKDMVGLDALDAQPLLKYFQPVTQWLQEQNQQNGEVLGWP
Method: as §3

[9] = cited from earlier work
[10] = tested on: rostro-ventrolateral medulla of freely moving rats; settings: free (not encapsulated), 25 to 50 ng; cited from earlier work
[11] = recombinant NEP, substrate Abz-RL-EDDnp, pH 7.5, 37° C., read-out: NEP - Ki
[12] = recombinant ACE, substrate Mca-Ala-Ser-Asp-Lys-DpaOH, 25° C., pH 6.8, read-out: ECA - Ki, C-terminal
[13] = recombinant ACE, substrate Mca-Ala-Ser-Asp-Lys-DpaOH, 25° C., pH 6.8, read-out: ECA - Ki, N-terminal

## C[C@H](CS)C(=O)N1CCC[C@H]1C(=O)O [Captopril]
[1]
  drug absorption time when administered alone: 1 h

## C[C@H](NC(=O)[C@H](Cc1c[nH]c2ccccc12)NC(=O)[C@H](CCCCN)NC(=O)[C@@H]1CCC(=O)N1)C(=O)N1CCC[C@H]1C(=O)O [EVASIN-5a, <EKWAP] ([pGlu]KWAP-OH; C-terminus assumed)
[2]
  Bk potentiation(%): 102.5%
  Duration time: 10
[3]; SHR
  time duration of effect after the infusion interruption: over 6 hours
  decrease of the MAP: 28±2.7 mmHg
[3]; TGR (mREN2) L27
  decrease of the MAP: 34±0.9 mmHg
[3]; TGRs
  time duration of effect after the infusion interruption: 1 h
[4]; [11]
  pKi: 3.26
[5]
  hypotensive effect length: 37 min
  reduction in the mean blood pressure (maximum): −19.17±4.36 mmHg
[6]; [12]
  pKi: 5.89
[7]
  effect length: 38 min
  maximum hypotensive effect, reduction of MAP: 23±4.2 mmHg
[8]; [13]
  pKi: 6.40

## CC[C@H](C)[C@H](NC(=O)[C@@H]1CCCN1C(=O)CNC(=O)[C@H](CC(=O)O)NC(=O)[C@@H]1CCC(=O)N1)C(=O)N1CCC[C@H]1C(=O)N1CCC[C@H]1C(=O)O [EVASIN-7a, <EDGPIPP] ([pGlu]DGPIPP-OH; C-terminus assumed)
[2]
  Bk potentiation(%): 41.8%
  Duration time: 120
[4]; [11]
  pKi: 3.31
[5]
  hypotensive effect length: more than 100 minutes
  reduction in the mean blood pressure (maximum): 13.00±2.78 mmHg
[6]; [12]
  pKi: 4.40
[8]; [13]
  pKi: 4.15

## CC[C@H](C)[C@H](NC(=O)[C@H](CCC(N)=O)NC(=O)[C@@H]1CCCN1C(=O)[C@H](CCCNC(=N)N)NC(=O)[C@@H]1CCCN1C(=O)[C@H](Cc1c[nH]c2ccccc12)NC(=O)[C@@H]1CCC(=O)N1)C(=O)N1CCC[C@H]1C(=O)N1CCC[C@H]1C(=O)O [EVASIN-9a, <EWPRPQIPP]
[9]; administered intravenously
  antihypertensive activity, intravenously: has an antihypertensive activity
[9]; given orally
  antihypertensive activity, orally: inactive
[4]; [11]
  pKi: 4.07
[5]
  hypotensive effect length: 84 min
  reduction in the mean blood pressure (maximum): −27.0±1.50 mmHg
[6]; [12]
  pKi: 9.00
[8]; [13]
  pKi: 7.00

## CC[C@H](C)[C@H](NC(=O)[C@H](CCC(N)=O)NC(=O)[C@@H]1CCCN1C(=O)[C@H](Cc1c[nH]cn1)NC(=O)[C@@H]1CCCN1C(=O)[C@H](Cc1c[nH]c2ccccc12)NC(=O)[C@H](CC(N)=O)NC(=O)[C@@H]1CCC(=O)N1)C(=O)N1CCC[C@H]1C(=O)N1CCC[C@H]1C(=O)O [EVASIN-10c, <ENWPHPQIPP] ([pGlu]NWPHPQIPP-OH; C-terminus assumed)
[2]
  Bk potentiation(%): 195%
  Duration time: 95
[4]
  pKi: 3.60
[5]
  hypotensive effect length: 94 min
  reduction in the mean blood pressure (maximum): −29.5±9.50 mmHg
[6]
  pKi: 9.30
[6]; C-terminal versus N-terminal site of ACE
  selectivity for the C-terminal site: 400 times
[8]
  pKi: 6.70

## Ang-(1-7) (DRVYIHP; Angiotensin 1-7; UniProt P01019 25-31, looked up) [free Ang-(1-7), angiotensinergic peptide, not encapsulated]
[10]
  duration of the increase: approximately 10 min
  increase of blood pressure: 15 mmHg

Reference: patent US20080199503A1, “Pharmaceutical Compositions Preparation of Peptides, Secreted by the Snake Venom Glands, Particularly of Bothrops Jararaca, Vasopeptidases Inhibitors, Evasins, Their Analogues, Derivatives and Products Associated, Thereof, for Development of Applications and Use in Chronic-Degenerative Diseases” (priority 2002, published 2008)
